# Source: ChEMBL document CHEMBL5113380, “Functionalized quinoxalinones as privileged structures with broad-ranging pharmacological activities” (Eur J Med Chem, 2022)
# Columns and labels:
# [1] = target: Prostaglandin G/H synthase 1 (Homo sapiens, UniProt P23219)
# Homo sapiens = species: Homo sapiens; assay: Inhibition of human TRK relative to control; parameters: concentration or dose not given beside the values; settings: concentration not given here
# [2] = target: Glutamate [NMDA] receptor; assay: Displacement of [3H]glycine from NMDA receptor (unknown origin); format: protein-complex assay, Homo sapiens
# Candida albicans = assay: Antifungal activity against Candida albicans; format: functional
# Pichia kudriavzevii = assay: Antifungal activity against Candida krusei; format: functional
# Candida [3] = assay: Antifungal activity against Candida species isolate 1; format: functional
# Candida parapsilosis = assay: Antifungal activity against Candida parapsilosis; format: functional; settings: Lodderomyces parapsilosis
# Nakaseomyces glabratus = assay: Antifungal activity against Candida glabrata; format: functional
# Candida tropicalis = assay: Antifungal activity against Candida tropicalis; format: functional
# Candida [4] = assay: Antifungal activity against Candida species isolate 3; format: functional
# Staphylococcus aureus [5] = assay: Antibacterial activity against Staphylococcus aureus; format: functional
# [6] = Inhibition of palmitate-induced lipid accumulation in human HepG2 cells relative to control; format: functional
# Pseudomonas aeruginosa = assay: Antibacterial activity against Pseudomonas aeruginosa; format: functional
# [7] = Antioxidant activity assessed as DPPH radical scavenging activity; format: functional; settings: read-out: IC50
# Staphylococcus aureus [8] = assay: Antibacterial activity against methicillin-resistant Staphylococcus aureus; format: functional
# Escherichia coli = assay: Antibacterial activity against Escherichia coli; format: functional
# Alpha amylase = target: T1, Alpha amylase (Homo sapiens, UniProt P0DUB6); assay: Inhibition of alpha-amylase (unknown origin)
# T1 sequence (P0DUB6 whole entry): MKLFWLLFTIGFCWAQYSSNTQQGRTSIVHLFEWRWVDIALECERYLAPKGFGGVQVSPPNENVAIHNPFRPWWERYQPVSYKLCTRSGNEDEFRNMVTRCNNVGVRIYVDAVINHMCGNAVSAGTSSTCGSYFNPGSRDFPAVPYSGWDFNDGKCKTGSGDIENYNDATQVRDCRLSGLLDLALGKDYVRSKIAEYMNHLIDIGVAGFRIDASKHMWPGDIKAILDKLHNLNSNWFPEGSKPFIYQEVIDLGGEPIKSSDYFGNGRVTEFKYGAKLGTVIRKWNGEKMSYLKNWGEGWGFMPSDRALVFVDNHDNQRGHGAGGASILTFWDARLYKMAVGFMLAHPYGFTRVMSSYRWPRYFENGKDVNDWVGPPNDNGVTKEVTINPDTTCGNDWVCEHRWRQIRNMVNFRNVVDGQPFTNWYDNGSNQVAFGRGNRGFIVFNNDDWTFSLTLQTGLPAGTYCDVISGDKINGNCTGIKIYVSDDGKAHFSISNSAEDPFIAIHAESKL
# [9] = target: Human immunodeficiency virus type 1 reverse transcriptase (Human immunodeficiency virus 1) (UniProt Q72547); assay: Inhibition of HIV1 reverse transcriptase at 10 uM relative to control
# [10] = target: Human immunodeficiency virus type 1 reverse transcriptase (Human immunodeficiency virus 1) (UniProt Q72547); assay: Inhibition of HIV1 reverse transcriptase at 100 uM relative to control
# [11] = target: Human immunodeficiency virus type 1 reverse transcriptase (Human immunodeficiency virus 1, UniProt Q72547); assay: Inhibition of HIV1 reverse transcriptase
# [12] = Inhibition of ALR1 (unknown origin) relative to control; parameters: concentration or dose not given beside the values; settings: Homo sapiens; concentration not given here
# [13] = Inhibition of ALR2 (unknown origin); parameters: species or system Homo sapiens
# [14] = Antioxidant activity assessed as DPPH radical scavenging activity at 100 uM; format: functional
# [15] = Antioxidant activity assessed as DPPH radical scavenging activity at 50 uM; format: functional
# [16] = Antioxidant activity assessed as DPPH radical scavenging activity at 10 uM; format: functional
# [17] = target: T2, Glutamate receptor ionotropic AMPA (Homo sapiens, UniProt P42261+P42262+P42263+P48058); assay: Displacement of [3H]AMPA from AMPA receptor (unknown origin); format: protein-complex assay
# [18] = Displacement of [3H]glycine from AMPA receptor (unknown origin); format: protein-complex assay, Homo sapiens
# [19] = target: T2, Glutamate receptor ionotropic AMPA; assay: Displacement of [3H]kainate from AMPA receptor (unknown origin); format: protein-complex assay
# HeLa 229 = assay: Antiproliferative activity against human HeLa 229 cells after 72 hrs by MTT assay; format: functional, cell-based; settings: HeLa 229, 72 h
# B16-F10 = assay: Antiproliferative activity against mouse B16-F10 cells after 72 hrs by MTT assay; format: functional, cell-based; settings: B16-F10, 72 h
# NCI-H460 = assay: Antiproliferative activity against human NCI-H460 cells after 72 hrs by MTT assay; format: functional, cell-based; settings: NCI-H460, 72 h
# HCT-116 = assay: Antiproliferative activity against human HCT-116 cells after 72 hrs by MTT assay; format: functional, cell-based; settings: HCT-116, 72 h
# Klebsiella pneumoniae = assay: Antibacterial activity against Klebsiella pneumoniae; format: functional
# Candida [20] = assay: Antifungal activity against Candida species isolate 2; format: functional
# MCF7 = assay: Antiproliferative activity against human MCF7 cells; format: functional, cell-based
# HepG2 = assay: Antiproliferative activity against human HepG2 cells; format: functional, cell-based
# Chain of Prostaglandin G/H synthase 1 (P23219 whole entry): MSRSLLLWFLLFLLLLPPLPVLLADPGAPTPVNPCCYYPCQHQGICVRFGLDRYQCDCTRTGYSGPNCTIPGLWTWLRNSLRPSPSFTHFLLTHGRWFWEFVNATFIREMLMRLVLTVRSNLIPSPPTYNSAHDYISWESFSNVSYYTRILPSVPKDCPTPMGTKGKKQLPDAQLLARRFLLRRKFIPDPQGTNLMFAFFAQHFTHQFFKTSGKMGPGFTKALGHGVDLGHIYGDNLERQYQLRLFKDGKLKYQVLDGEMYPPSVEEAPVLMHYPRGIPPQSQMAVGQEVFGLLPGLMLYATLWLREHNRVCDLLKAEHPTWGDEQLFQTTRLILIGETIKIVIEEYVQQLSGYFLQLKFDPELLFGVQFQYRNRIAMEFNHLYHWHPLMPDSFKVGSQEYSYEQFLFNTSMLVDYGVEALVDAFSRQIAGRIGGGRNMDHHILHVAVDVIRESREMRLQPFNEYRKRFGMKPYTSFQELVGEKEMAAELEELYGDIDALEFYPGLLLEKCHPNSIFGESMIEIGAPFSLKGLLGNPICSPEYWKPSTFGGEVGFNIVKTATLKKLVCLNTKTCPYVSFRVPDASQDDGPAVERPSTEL
smiles,measurement,setting,value
Cc1nn(-c2ccccc2)c(N2CCN(C)CC2)c1/C=N/Nc1nc2ccccc2nc1O,IC50,[1],> 50 µM
same,inhibition,Homo sapiens,83%
CCCc1nnc2c(O)nc3cc(Cl)c(Cl)cc3n12,IC50,[2],3.92 µM
O=c1[nH]c2cc(C(F)(F)F)ccc2nc1CBr,MIC,Candida albicans,> 125 mg/L
same,MIC,Pichia kudriavzevii,125 mg/L
same,MIC,Candida [3],62.5 mg/L
same,MIC,Candida parapsilosis,> 125 mg/L
same,MIC,Nakaseomyces glabratus,> 125 mg/L
same,MIC,Candida tropicalis,125 mg/L
same,MIC,Candida [4],< 3.5 mg/L
same,MIC,Staphylococcus aureus [5],62.5 mg/L
Cc1cnc2ccccc2n1,inhibition (INH),[6],20%
COc1ccc(C2SCC(=O)N2c2ccc3nc(Cc4ccc(O)cc4)c(=O)[nH]c3c2)cc1 (stereo not given),MBC,Pseudomonas aeruginosa,680 µM
same,MBC,Candida albicans,85 µM
same,IC50,[7],19.6 µM
same,MBC,Staphylococcus aureus [8],63.8 µM
same,MBC,Escherichia coli,21.2 µM
same,MBC,Staphylococcus aureus [5],15.9 µM
same,IC50,Alpha amylase,301.59 µM
CC(=O)N1CC(=O)Nc2ccccc21,inhibition,[9],7%
same,inhibition,[10],56%
CC(C)Cc1nc2ccccc2[nH]c1=O,IC50,[11],23 µM
same,inhibition,[9],15%
same,inhibition,[10],73%
O=C(O)Cn1c(=O)c(/C=C/c2ccc(O)c(O)c2)nc2ccc(O)cc21,inhibition,[12],42.1%
same,IC50,[13],0.102 µM
same,Activity,[14],96.2%
same,Activity,[15],82.1%
same,Activity,[16],70.5%
Cc1ccc2ncc(C)nc2c1,inhibition (INH),[6],20%
O=C(O)Cn1c(=O)c(=O)[nH]c2cc(Cl)c(Cl)cc21,Ki,[2],0.11 µM
same,Ki,[17],2.1 µM
CC(C)COC(=O)N1c2ccccc2NC(=O)[C@H]1CC(C)C,IC50,[11],67 µM
same,inhibition,[9],22%
same,inhibition,[10],51%
CC(=O)N1CCN(c2c(/C=N/Nc3nc4ccccc4nc3O)c(C)nn2-c2ccccc2)CC1,IC50,[1],> 50 µM
same,inhibition,Homo sapiens,80%
COc1cc(/C=C/c2nc3ccccc3n(CC(=O)O)c2=O)ccc1O,inhibition,[12],32.6%
same,IC50,[13],0.419 µM
same,IC50,[7],24.1 µM
same,Activity,[14],95.4%
same,Activity,[15],68.8%
same,Activity,[16],39.6%
Cc1ccc2c(c1)N[C@H](C)C(=O)N2,inhibition (INH),[6],50%
CN1CCc2c(c([N+](=O)[O-])cc3[nH]c(=O)c(=O)[nH]c23)C1,IC50,[18],4.9 µM
same,IC50,[17],0.29 µM
same,IC50,[19],0.38 µM
Cc1nn(-c2ccccc2)c(N2CCOCC2)c1/C=N/Nc1nc2ccccc2nc1O,IC50,[1],> 50 µM
same,inhibition,Homo sapiens,84%
O=c1[nH]c2ccccc2nc1/C=C/c1ccccc1Br,IC50,HeLa 229,> 50 µM
same,IC50,B16-F10,7.61 µM
same,IC50,NCI-H460,9.62 µM
same,IC50,HCT-116,12.3 µM
O=c1c(/C=C/c2ccc(O)c(O)c2)nc2ccccc2n1-c1cnn(O)c1,inhibition,[12],30.5%
same,IC50,[13],0.148 µM
same,IC50,[7],20.9 µM
same,Activity,[14],95.6%
same,Activity,[15],72.5%
same,Activity,[16],40.8%
O=C1CSC(c2ccc(F)cc2)N1c1ccc2nc(Cc3ccc(O)cc3)c(=O)[nH]c2c1 (stereo not given),MBC,Pseudomonas aeruginosa,21.7 µM
same,MBC,Candida albicans,65.2 µM
same,MBC,Klebsiella pneumoniae,87 µM
same,IC50,[7],239 µM
same,MBC,Staphylococcus aureus [8],87 µM
same,MBC,Escherichia coli,32.6 µM
same,MBC,Staphylococcus aureus [5],43.5 µM
CC(C)COC(=O)N1CC(=O)Nc2ccccc21,inhibition,[9],20%
same,inhibition,[10],46%
O=c1[nH]c2ccc(C(F)(F)F)cc2nc1CBr,MIC,Candida albicans,31.2 mg/L
same,MIC,Pichia kudriavzevii,62.5 mg/L
same,MIC,Candida [3],15.6 mg/L
same,MIC,Candida parapsilosis,250 mg/L
same,MIC,Nakaseomyces glabratus,62.5 mg/L
same,MIC,Candida tropicalis,> 500 mg/L
same,MIC,Candida [4],62.5 mg/L
same,MIC,Staphylococcus aureus [5],31.2 mg/L
same,MIC,Candida [20],62.5 mg/L
O=C(O)Cn1c(=O)c(-c2ccc(O)cc2O)nc2ccc(F)cc21,inhibition,[12],46.2%
same,IC50,[13],0.032 µM
same,Activity,[14],9.1%
CCC(C)CN1CCc2c(Br)cc3nc(O)c(O)nc3c2C1 (stereo not given),IC50,[18],> 100 µM
same,IC50,[17],> 100 µM
same,IC50,[19],2.9 µM
Cc1cc2[nH]c(=O)c(=O)n(CC(=O)O)c2cc1C,Ki,[2],13.8 µM
same,Ki,[17],0.7 µM
Cc1nn(-c2ccccc2)c(SCCCO)c1/C=N/Nc1nc2ccccc2[nH]c1=O,IC50,MCF7,11.3 µM
same,IC50,HepG2,23.4 µM
same,inhibition,Homo sapiens,78%
CN1CCc2c([N+](=O)[O-])cc3[nH]c(=O)c(=O)[nH]c3c2C1,IC50,[18],0.37 µM
same,IC50,[17],0.063 µM
same,IC50,[19],0.368 µM
COc1ccc2nc(/C=C/c3ccc(O)cc3)c(=O)n(CC(=O)O)c2c1,inhibition,[12],37.6%
same,IC50,[13],0.059 µM
same,Activity,[14],59.2%
same,Activity,[15],34.3%
